In the assay the test system is Cavia porcellus. Nature of the assay: Effective dose for inhibition of gas trapping in vivo in a guinea pig model of LTB4-induced airway obstruction. Type of assay: functional.

The structures appear in SMILES notation.

`CCOc1cc(CC)c(OCCCCCC(C)(C)c2nn[n-]n2)cc1O.[Na+]` yielded an ED50 of 0.3 mg/kg.

A word on the ED50: it is the midpoint of the dose-response relation.

Source of the values: ChEMBL document CHEMBL1126385, “-alkoxyphenol leukotriene B4 receptor antagonists” (Bioorg Med Chem Lett, 1992).
